Experimental data reported in ChEMBL document CHEMBL4251697 (ACS Med Chem Lett, 2018).
Converted amounts (≈) assume the structure as drawn.

System: not listed separately
Assay: Thermodynamic solubility of compound in pH 6.8 phosphate buffer solution incubated overnight on shaker by shake flask based HPLC analysis
Assay type: physicochemical
Details: read-out: Therm_solubility

| solubility thermodynamic [µM] | Structure (SMILES) |
| --- | --- |
| < 2.9 | O=Cc1ccc2cccc(C(=O)Nc3ccc(C(F)(F)F)cn3)c2n1 |
| 4.9 (≈ 1.72 µg/mL) | O=Cc1ccc2c(n1)N(C(=O)Nc1ccc(C(F)(F)F)cn1)CCC2 |

System: not listed separately
Assay: Aqueous equilibrium solubility of compound in pH 6.8 phosphate buffer solution incubated overnight by shake flask based high throughput assay
Assay type: physicochemical
Details: not given

| solubility thermodynamic [µM] | Structure (SMILES) |
| --- | --- |
| < 4 | O=Cc1ccc2cccc(C(=O)Nc3ccc(C(F)(F)F)cn3)c2n1 |
| 300 (≈ 118 µg/mL) | CN(C)CCOc1cc(NC(=O)N2CCCc3ccc(C=O)nc32)ncc1C#N |
| < 4 | O=Cc1ccc2c(n1)N(C(=O)Nc1ccc(C(F)(F)F)cn1)CCC2 |
| > 1000 | COCCNc1cc(NC(=O)N(CCOC)c2cccc(C=O)n2)ncc1C#N |
| 173 (≈ 63.4 µg/mL) | CN(C)CCOc1cc(NC(=O)N2CCCc3cccnc32)ncc1C#N |

Molecular target: Fibroblast growth factor receptor 4 (Homo sapiens, UniProt P22455)
Details: not given

Sequence of Fibroblast growth factor receptor 4 (P22455 whole entry): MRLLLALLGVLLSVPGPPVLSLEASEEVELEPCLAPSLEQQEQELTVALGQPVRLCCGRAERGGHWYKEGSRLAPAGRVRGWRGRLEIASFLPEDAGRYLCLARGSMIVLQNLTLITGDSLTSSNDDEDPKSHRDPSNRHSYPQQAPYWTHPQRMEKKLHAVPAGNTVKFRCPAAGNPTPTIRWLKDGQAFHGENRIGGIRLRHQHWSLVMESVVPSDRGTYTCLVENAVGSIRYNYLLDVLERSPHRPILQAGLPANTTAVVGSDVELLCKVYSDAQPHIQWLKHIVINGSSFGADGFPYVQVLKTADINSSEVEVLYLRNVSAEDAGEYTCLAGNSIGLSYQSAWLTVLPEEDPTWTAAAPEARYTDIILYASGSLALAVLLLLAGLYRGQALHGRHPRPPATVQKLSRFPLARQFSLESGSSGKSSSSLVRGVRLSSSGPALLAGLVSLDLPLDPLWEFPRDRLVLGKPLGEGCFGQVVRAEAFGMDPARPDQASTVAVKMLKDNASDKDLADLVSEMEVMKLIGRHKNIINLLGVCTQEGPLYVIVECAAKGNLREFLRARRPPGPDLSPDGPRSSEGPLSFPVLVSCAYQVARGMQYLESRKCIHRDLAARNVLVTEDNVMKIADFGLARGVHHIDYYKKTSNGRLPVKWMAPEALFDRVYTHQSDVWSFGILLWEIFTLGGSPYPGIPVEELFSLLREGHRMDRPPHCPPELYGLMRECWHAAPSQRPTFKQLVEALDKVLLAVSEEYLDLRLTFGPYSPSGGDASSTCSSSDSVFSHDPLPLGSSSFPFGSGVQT

| IC50 [µM] | Structure (SMILES) |
| --- | --- |
| > 10 | N#Cc1ccc(NC(=O)N2CCCc3ccc(CO)nc32)nc1 |
| > 10 | CN(C(=O)N1CCCc2ccc(C=O)nc21)c1ccc(C(F)(F)F)cn1 |
